Test results published in ChEMBL document CHEMBL5331073, “Discovery of novel 7,7-dimethyl-6,7-dihydro-5H-pyrrolo[3,4-d]pyrimidines as ATR inhibitors based on structure-based drug design” (Eur J Med Chem, 2023).
pIC50: −log10 of the molar value. The source made the active and inactive calls. No cut-off for these calls is given here.

Columns and labels:
[1] = Cmax in Sprague-Dawley rat at 5 mg/kg, po and measured upto 24 hrs by LC-MS analysis; assay type: ADME, organism-based; set-up: time < 24 hrs, dose 5 mg/kg, route po; conditions: in vivo
in vitro [2] = conditions: rat, liver microsomes
in vitro [3] = conditions: rat, liver microsomes; remark: listed apart in the source
[4] = AUC (0 to infinity) in Sprague-Dawley rat at 5 mg/kg, po and measured upto 24 hrs by LC-MS analysis; assay type: ADME, organism-based; set-up: time < 24 hrs, dose 5 mg/kg, route po; conditions: in vivo
OVCAR-3 = test: Antiproliferative activity against ATM-deficient human OVCAR-3 cells assessed as reduction in cell viability incubated for 3 days by MTT assay; assay type: functional, cell-based; conditions: OVCAR-3, 72 h
LoVo [5] = test: Inhibition of colony formation of ATM-deficient human LoVo cells at 0.03 to 3 uM incubated for 2 weeks by crystal violet staining based assay; assay type: functional, cell-based; conditions: dose 0.03-3 µM
HCT-116 [6] = test: Synergistic antiproliferative activity against ATM-proficient human HCT-116 cells assessed as reduction in cell viability incubated for 3 days in presence of cisplatin by MTT assay; assay type: functional, cell-based; conditions: HCT-116, 72 h
Cytochrome P450 2D6 = Cytochrome P450 2D6 (Homo sapiens, UniProt P10635); test: Inhibition of CYP2D6 in human liver microsomes using […] as substrate preincubated for 5 mins followed by NADPH addition and measured after 120 mins by LC-MS/MS analysis; assay type: ADME, Microsome
Sequence of Cytochrome P450 2D6 (P10635 whole entry): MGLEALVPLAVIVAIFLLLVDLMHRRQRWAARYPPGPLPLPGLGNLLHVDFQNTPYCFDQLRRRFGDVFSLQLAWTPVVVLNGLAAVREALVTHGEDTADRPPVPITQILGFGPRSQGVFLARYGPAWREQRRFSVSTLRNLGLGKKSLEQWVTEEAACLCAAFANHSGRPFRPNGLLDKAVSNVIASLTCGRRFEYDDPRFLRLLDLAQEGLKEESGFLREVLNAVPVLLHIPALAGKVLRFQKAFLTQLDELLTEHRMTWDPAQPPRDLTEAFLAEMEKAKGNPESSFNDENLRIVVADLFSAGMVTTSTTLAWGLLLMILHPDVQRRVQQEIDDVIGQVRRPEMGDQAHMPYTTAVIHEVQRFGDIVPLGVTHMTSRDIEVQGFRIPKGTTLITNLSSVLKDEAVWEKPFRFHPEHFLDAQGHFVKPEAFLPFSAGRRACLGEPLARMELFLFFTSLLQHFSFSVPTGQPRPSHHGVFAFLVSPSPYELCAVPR

[7] = Oral bioavailability in Sprague-Dawley rat at 5 mg/kg and measured upto 24 hrs by LC-MS analysis; assay type: ADME, organism-based; conditions: in vivo
Cytochrome P450 1A2 = biological target: T1, Cytochrome P450 1A2 (Homo sapiens, UniProt P05177); test: Inhibition of CYP1A2 in human liver microsomes using […] as substrate preincubated for 5 mins followed by NADPH addition and measured after 120 mins by LC-MS/MS analysis; assay type: ADME, Microsome
T1 sequence (P05177 whole entry): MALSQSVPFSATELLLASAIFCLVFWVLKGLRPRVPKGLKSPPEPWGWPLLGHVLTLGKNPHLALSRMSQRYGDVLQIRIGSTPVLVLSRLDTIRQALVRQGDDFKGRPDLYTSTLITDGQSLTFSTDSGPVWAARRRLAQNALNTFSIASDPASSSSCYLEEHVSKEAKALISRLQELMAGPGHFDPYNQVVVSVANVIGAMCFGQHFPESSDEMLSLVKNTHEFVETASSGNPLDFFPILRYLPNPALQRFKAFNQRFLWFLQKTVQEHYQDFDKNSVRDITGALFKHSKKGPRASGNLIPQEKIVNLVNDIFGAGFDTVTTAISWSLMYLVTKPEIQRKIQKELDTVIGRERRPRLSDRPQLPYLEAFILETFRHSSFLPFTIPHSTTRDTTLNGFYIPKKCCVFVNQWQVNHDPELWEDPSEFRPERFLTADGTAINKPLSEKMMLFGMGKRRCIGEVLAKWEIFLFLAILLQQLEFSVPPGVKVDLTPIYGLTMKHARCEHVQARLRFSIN

[8] = biological target: Serine/threonine-protein kinase ATR (Homo sapiens, UniProt Q13535); test: Inhibition of ATR (unknown origin) using peptide as substrate preincubated for 10 mins followed by substrate addition by microplate reader analysis
Sequence of Serine/threonine-protein kinase ATR (Q13535 whole entry): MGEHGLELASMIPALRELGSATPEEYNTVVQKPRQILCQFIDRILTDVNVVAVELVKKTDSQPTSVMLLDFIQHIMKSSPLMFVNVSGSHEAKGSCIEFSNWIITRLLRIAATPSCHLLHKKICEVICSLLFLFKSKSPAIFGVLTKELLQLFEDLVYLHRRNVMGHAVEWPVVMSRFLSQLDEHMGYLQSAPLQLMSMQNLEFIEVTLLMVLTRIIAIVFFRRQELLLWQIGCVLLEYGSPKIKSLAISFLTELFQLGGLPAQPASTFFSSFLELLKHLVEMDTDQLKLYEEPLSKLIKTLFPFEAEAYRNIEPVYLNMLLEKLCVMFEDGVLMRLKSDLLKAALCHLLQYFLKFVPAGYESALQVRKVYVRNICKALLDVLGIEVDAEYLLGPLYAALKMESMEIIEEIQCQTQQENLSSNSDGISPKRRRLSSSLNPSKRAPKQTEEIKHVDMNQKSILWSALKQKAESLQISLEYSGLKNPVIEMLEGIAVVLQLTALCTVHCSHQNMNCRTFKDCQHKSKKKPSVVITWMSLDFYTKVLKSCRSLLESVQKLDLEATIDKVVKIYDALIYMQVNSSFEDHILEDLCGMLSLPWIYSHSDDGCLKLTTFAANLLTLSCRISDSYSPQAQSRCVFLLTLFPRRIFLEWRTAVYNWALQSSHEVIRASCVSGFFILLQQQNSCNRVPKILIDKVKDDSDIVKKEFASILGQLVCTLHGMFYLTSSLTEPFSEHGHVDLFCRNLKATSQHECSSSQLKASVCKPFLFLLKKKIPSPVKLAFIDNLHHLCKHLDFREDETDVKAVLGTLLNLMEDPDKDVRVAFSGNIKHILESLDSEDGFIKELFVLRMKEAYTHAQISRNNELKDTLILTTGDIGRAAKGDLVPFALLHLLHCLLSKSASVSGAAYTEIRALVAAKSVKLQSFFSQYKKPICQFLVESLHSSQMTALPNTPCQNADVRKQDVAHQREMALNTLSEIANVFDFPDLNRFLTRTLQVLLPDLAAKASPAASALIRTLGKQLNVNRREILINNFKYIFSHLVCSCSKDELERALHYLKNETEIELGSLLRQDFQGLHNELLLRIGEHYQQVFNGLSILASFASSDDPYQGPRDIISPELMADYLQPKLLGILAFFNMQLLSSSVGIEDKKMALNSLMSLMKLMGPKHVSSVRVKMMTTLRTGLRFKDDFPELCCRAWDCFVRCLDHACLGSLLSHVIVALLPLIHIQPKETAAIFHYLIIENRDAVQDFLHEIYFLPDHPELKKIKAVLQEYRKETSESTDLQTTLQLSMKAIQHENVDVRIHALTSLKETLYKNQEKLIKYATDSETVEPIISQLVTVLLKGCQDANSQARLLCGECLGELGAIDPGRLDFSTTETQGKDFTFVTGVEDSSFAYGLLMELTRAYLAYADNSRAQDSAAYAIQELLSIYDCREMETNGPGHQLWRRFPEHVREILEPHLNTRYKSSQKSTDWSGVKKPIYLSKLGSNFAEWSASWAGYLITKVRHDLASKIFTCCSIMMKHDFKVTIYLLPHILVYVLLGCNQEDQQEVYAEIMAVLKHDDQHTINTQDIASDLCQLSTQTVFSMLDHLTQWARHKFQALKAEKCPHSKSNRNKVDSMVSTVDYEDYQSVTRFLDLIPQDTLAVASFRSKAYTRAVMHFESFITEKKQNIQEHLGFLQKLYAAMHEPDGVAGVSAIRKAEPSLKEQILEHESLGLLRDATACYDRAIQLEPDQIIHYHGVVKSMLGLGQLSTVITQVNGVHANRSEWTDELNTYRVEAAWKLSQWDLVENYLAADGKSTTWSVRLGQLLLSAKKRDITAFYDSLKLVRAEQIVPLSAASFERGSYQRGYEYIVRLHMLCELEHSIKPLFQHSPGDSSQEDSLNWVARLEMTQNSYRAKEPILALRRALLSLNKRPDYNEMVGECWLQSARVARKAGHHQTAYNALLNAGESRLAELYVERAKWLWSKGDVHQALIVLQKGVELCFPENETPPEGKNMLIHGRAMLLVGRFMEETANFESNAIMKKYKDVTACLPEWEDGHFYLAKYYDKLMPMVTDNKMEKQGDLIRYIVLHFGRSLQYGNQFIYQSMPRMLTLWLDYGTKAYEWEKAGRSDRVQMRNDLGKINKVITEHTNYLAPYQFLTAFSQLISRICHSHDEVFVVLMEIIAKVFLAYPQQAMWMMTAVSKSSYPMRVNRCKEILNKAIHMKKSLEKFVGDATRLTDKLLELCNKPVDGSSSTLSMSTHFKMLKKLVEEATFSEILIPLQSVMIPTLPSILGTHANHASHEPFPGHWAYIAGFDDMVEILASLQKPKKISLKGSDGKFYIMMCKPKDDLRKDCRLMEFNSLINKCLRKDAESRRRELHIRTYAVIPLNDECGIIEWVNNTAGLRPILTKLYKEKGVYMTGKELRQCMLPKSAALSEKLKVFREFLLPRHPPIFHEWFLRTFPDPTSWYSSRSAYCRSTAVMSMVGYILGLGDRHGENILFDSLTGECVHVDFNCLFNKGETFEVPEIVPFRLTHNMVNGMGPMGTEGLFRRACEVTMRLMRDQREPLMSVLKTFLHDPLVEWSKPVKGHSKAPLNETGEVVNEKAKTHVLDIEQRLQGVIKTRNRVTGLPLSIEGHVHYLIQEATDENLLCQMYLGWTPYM

[9] = MRT (0 to infinity) in Sprague-Dawley rat at 5 mg/kg, po and measured upto 24 hrs by LC-MS analysis; assay type: ADME, organism-based; conditions: in vivo
HCT-116 [10] = test: Antiproliferative activity against ATM-proficient human HCT-116 cells assessed as reduction in cell viability incubated for 3 days in presence of AZD-1390 by MTT assay; assay type: functional, cell-based; conditions: HCT-116, 72 h
LoVo [11] = test: Antiproliferative activity against ATM-deficient human LoVo cells assessed as reduction in cell proliferation incubated for 3 days by MTT assay; assay type: functional, cell-based; conditions: 72 h
Cytochrome P450 3A4 = Cytochrome P450 3A4 (Homo sapiens, UniProt P08684); test: Inhibition of CYP3A4 in human liver microsomes using […] as substrate preincubated for 5 mins followed by NADPH addition and measured after 120 mins by LC-MS/MS analysis; assay type: ADME, Microsome
Sequence of Cytochrome P450 3A4 (P08684 whole entry): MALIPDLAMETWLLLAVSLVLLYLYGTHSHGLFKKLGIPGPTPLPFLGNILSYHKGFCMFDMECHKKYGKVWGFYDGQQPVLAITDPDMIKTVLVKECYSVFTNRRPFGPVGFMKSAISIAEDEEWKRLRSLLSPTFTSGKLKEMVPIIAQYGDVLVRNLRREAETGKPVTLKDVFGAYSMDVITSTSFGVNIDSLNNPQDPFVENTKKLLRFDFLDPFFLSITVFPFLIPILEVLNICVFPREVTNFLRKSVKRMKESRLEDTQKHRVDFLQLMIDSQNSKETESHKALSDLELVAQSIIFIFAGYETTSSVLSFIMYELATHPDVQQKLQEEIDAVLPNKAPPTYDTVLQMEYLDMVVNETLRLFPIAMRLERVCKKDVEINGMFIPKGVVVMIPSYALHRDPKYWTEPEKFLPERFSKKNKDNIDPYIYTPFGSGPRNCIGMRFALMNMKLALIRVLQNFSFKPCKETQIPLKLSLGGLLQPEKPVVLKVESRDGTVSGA

SW-620 = test: Antiproliferative activity against ATM-deficient human SW620 cells assessed as reduction in cell viability incubated for 3 days by MTT assay; assay type: functional, cell-based; conditions: SW-620, 72 h
[12] = biological target: Serine/threonine-protein kinase mTOR (Homo sapiens, UniProt P42345); test: Inhibition of mTOR (unknown origin) using peptide as substrate preincubated for 10 mins followed by substrate addition by microplate reader analysis
[13] = MRT (0 to infinity) in Sprague-Dawley rat at 1 mg/kg, iv and measured upto 24 hrs by LC-MS analysis; assay type: ADME, organism-based; conditions: in vivo
[14] = MRT(t) in Sprague-Dawley rat at 1 mg/kg, iv and measured upto 24 hrs by LC-MS analysis; assay type: ADME, organism-based; conditions: in vivo
A549 [15] = test: Antiproliferative activity against ATM-proficient human A549 cells assessed as reduction in cell viability incubated for 3 days in presence of AZD-1390 by MTT assay; assay type: functional, cell-based; conditions: A549, 72 h
in vitro [16] = conditions: human, liver microsomes
in vitro [17] = conditions: human, liver microsomes; remark: listed apart in the source
[18] = Volume of distribution at steady state in Sprague-Dawley rat at 1 mg/kg, iv and measured upto 24 hrs by LC-MS analysis; assay type: ADME, organism-based; conditions: in vivo, read-out: Vdss
[19] = Apparent permeability across apical to basolateral side in human Caco-2 cells by bidirectional permeability assay; assay type: ADME, cell-based
LoVo [20] = test: Antimigratory activity against ATM-deficient human LoVo cells assessed as inhibition of cell migration at 0.03 to 3 uM incubated for 24 hrs by crystal violet staining based Transwell migration assay; assay type: functional; conditions: dose 0.03-3 µM
Cytochrome P450 2C19 = Cytochrome P450 2C19 (Homo sapiens, UniProt P33261); test: Inhibition of CYP2C19 in human liver microsomes using […] as substrate preincubated for 5 mins followed by NADPH addition and measured after 120 mins by LC-MS/MS analysis; assay type: ADME, Microsome
Sequence of Cytochrome P450 2C19 (P33261 whole entry): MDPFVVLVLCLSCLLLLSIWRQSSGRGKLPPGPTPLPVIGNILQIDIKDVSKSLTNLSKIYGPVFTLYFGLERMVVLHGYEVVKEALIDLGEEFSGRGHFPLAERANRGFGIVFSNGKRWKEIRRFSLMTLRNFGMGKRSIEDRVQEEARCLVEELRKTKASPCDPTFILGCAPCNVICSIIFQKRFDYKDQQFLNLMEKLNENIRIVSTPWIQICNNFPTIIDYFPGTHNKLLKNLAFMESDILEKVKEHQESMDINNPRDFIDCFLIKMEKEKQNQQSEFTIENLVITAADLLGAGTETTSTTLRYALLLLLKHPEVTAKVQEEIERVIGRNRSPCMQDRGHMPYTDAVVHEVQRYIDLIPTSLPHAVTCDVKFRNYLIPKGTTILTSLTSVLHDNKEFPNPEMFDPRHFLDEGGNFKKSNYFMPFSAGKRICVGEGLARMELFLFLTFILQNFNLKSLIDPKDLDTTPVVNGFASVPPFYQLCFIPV

[21] = Protein binding in human plasma at 1 uM incubated for 6 hrs by dialysis based LC-MS/MS analysis; assay type: ADME, cell-free; conditions: read-out: PPB (converted)
MCF7 = test: Synergistic antiproliferative activity against human MCF7 cells assessed as reduction in cell viability incubated for 3 days in presence of olaparib by MTT assay; assay type: functional, cell-based; conditions: MCF7, 72 h
[22] = AUCt in Sprague-Dawley rat at 1 mg/kg, iv and measured upto 24 hrs by LC-MS analysis; assay type: ADME, organism-based; set-up: dose 1 mg/kg, time < 24 hrs, route iv; conditions: in vivo
A549 [23] = test: Synergistic antiproliferative activity against ATM-proficient human A549 cells assessed as reduction in cell viability incubated for 3 days in presence of oxaliplatin by MTT assay; assay type: functional, cell-based; conditions: A549, 72 h
HCT-116 [24] = test: Antiproliferative activity against ATM-proficient human HCT-116 cells assessed as reduction in cell viability incubated for 3 days by MTT assay; assay type: functional, cell-based; conditions: HCT-116, 72 h
A549 [25] = test: Antiproliferative activity against ATM-proficient human A549 cells assessed as reduction in cell viability incubated for 3 days by MTT assay; assay type: functional, cell-based; conditions: A549, 72 h
MDA-MB-231 = test: Antiproliferative activity against human MDA-MB-231 cells assessed as reduction in cell viability incubated for 3 days by MTT assay; assay type: functional, cell-based; conditions: MDA-MB-231, 72 h
in vitro [26] = conditions: human, liver microsomes; remark: listed apart in the source
[27] = Apparent permeability across basolateral to apical side in human Caco-2 cells by bidirectional permeability assay; assay type: ADME, cell-based

SMILES | Cmax [1] [ng/mL] | half-life at 1 h, 1 µM (in vitro [2]) [h] | CLint scaled at 1 h, 1 µM (in vitro [3]) [mL/min/kg] | AUC(0-inf) [4] [ng·h/mL] | pIC50 (OVCAR-3) | inhibition (LoVo [5]) | pIC50 (HCT-116 [6]) | pIC50 (Cytochrome P450 2D6) | bioavailability [7] [%] | pIC50 (Cytochrome P450 1A2) | pIC50 [8] | MRT inf [9] [h] | pIC50 (HCT-116 [10]) | pIC50 (LoVo [11]) | pIC50 (Cytochrome P450 3A4) | pIC50 (SW-620) | pIC50 [12] | MRT inf [13] [h] | MRT last at 24 h [14] [h] | pIC50 (A549 [15]) | further results
C[C@@H]1COCCN1c1nc(-c2cccc3[nH]ccc23)nc2c1CN(C(=O)c1cccc(S(C)(=O)=O)c1)C2(C)C | 282 | 0.35 | 119 | 1750 | 7.01 | Dose-Dependent Effect | 7.62 | < 5.00 | 30 | < 5.00 | 8.52 | 4.26 | 9.00 | 7.40 | 5.00 | 7.02 | 7.74 | 1.45 | 1.36 | 7.89 | microsomal CLint at 1 h, 1 µM (in vitro [16]): 407 µL/min/mg; CLint scaled at 1 h, 1 µM (in vitro [17]): 385 mL/min/kg; Vd [18]: 1.24 L/kg; Papp A→B [19]: 8.23 ×10⁻⁶ cm/s; inhibition (LoVo [20]): Active; pIC50 (Cytochrome P450 2C19): 6.00; fraction unbound at 6 h, 1 µM [21]: 0.003; pIC50 (MCF7): 6.48; AUC(0-t) at 24 h [22]: 1160 ng·h/mL; pIC50 (A549 [23]): 6.94; pIC50 (HCT-116 [24]): 7.39; pIC50 (A549 [25]): 6.52; pIC50 (MDA-MB-231): 5.97; half-life at 1 h, 1 µM (in vitro [26]): 0.0567 h; Papp B→A [27]: 16.7 ×10⁻⁶ cm/s
C[C@@H]1COCCN1c1nc(-c2cccc3[nH]ccc23)nc2c1CN(C(=O)c1ccc3c(c1)OCO3)C2(C)C | 1290 | 0.655 | 63.6 | 6170 | 6.90 | Dose-Dependent Effect | 7.03 | < 5.00 | 41.6 | < 5.00 | 8.30 | 4.21 | 7.08 | 7.11 | 6.00 | 6.84 | 7.48 | 2.19 | 1.99 | 6.90 | microsomal CLint at 1 h, 1 µM (in vitro [16]): 53.2 µL/min/mg; CLint scaled at 1 h, 1 µM (in vitro [17]): 50.3 mL/min/kg; Vd [18]: 0.785 L/kg; Papp A→B [19]: 1.91 ×10⁻⁶ cm/s; inhibition (LoVo [20]): Active; pIC50 (Cytochrome P450 2C19): 6.00; fraction unbound at 6 h, 1 µM [21]: 0.001; pIC50 (MCF7): 6.46; AUC(0-t) at 24 h [22]: 2740 ng·h/mL; pIC50 (A549 [23]): 6.47; pIC50 (HCT-116 [24]): 6.71; pIC50 (A549 [25]): 6.13; pIC50 (MDA-MB-231): 5.59; half-life at 1 h, 1 µM (in vitro [26]): 0.435 h; Papp B→A [27]: 2.3 ×10⁻⁶ cm/s
